In patent publication US11358962B2, “2-hetaryl imidazol[1,2-a]pyridine derivatives” (Hoffmann-La Roche Inc., priority 2013, dated 2022):

What follows are compounds tested on native tau aggregates (assay: TAU radioligand in vitro displacement assay ([3H]T808, autoradiography on human AD brain sections)). Conditions: compound 10 nM, radioligand [3H]T808 10 nM.
Format: binding
Source text: TAU Radioligand-In-Vitro Displacement Assay
This in vitro binding assay assesses the affinity of compounds for native tau aggregates.
AD human brains are purchased from Banner Sun Health Research Institute (Sun City, Ariz., USA). Pathological diagnosis of AD is made according to standard NIA-Reagan Institute criteria based on neuropathological data. The radioligand [^3H]T808 was synthesized in-house ([^3H]-2-[4-(2-Fluoro-ethyl)-piperidin-1-yl]-benzo[4,5]imidazo[1,2-a]pyrimidine, radiochemical purity 99.0%). As a reference cold T808 is used (2-[4-(2-Fluoro-ethyl)-piperidin-1-yl]-benzo[4,5]imidazo[1,2-a]pyrimidine). For the autoradiography FujiFilm Imaging Plates (BAS-IP TR 2025) are exposed to the sections and read with a FujiFilm IP reader (BAS-5000).
Ten μm thick human AD brain sections are generated with a cryostat (Leica CM3050) at −17° C. chamber temperature and −15° C. object temperature. Sections are transferred to Histobond+ microscope slides (Marienfeld Laboratory Glasware). After drying for 3 hours at room temperature the sections are stored at −20° C. The sections are incubated with the radioligand (10 nM) and the respective cold compound (at various concentrations) in 50 mM Tris buffer, pH 7.4 at room temperature for 30 min. After washing 3× 10 min at 4° C. in 50 mM Tris buffer, pH 7.4 and 3 quick dips in H2O dist. at 4° C. the sections are dried at 4° C. for 3 h. The sections are placed in a FujiFilm Cassette (BAS 2025), exposed with an Imaging Plate for five days and afterwards scanned with a resolution of […].
The signal intensity (Dens−PSL/mm2) in the region of interest (ROI) of the autoradiogram is quantified with the software MCID analysis (version 7.0, Imaging Research Inc.). The specific binding (SB) of [^3H]T808 binding in absence or in presence of a compound is calculated by subtracting the non-specific binding signal in the white matter, thus yielding SB[3H]T808 only and SBcompound. The % displacement by the various compounds is calculated as following: % displacement=100−(SBcompound/SB[3H]T808 only)*100. Validation Data
In each experiment cold T808 is used as a positive internal control. Co-incubation of equimolar amounts of hot and cold T808 is expected to reduce specific binding by approximately 50%.
For “2-Benzo[1,3]dioxol-5-yl-7-[4-(2-fluoro-ethyl)-piperidin-1-yl]-imidazo[1,2-a]pyridine [Example 21]”, the “% displacement of [3H]T808 (10 nM) at 10 nM” value (“% displacement … at 10 nM” for short) was 7%. `COc1ccc(-c2cn3ccc(N4CC[C@H](F)C4)cc3n2)cc1` [6 (S), (S)-7-(3-Fluoropyrrolidin-1-yl)-2-(4-methoxyphenyl)imidazo[1,2-a]pyridine] was tested, and the “% displacement … at 10 nM” value was 8%. In the case of `COc1ccc(-c2cn3ccc(N4CC[C@@H](F)C4)cc3n2)cc1` [7 (R), (R)-7-(3-Fluoropyrrolidin-1-yl)-2-(4-methoxyphenyl)imidazo[1,2-a]pyridine], the “% displacement … at 10 nM” value was 11%. In the case of `FCCNc1ccn2cc(-c3ccccc3)nc2c1` [Example 1, N-(2-Fluoroethyl)-2-phenylimidazo[1,2-a]pyridin-7-amine 2,2,2-trifluoroacetate], the “% displacement … at 10 nM” value was 40%. For `CN(CCF)c1ccn2cc(-c3ccccc3)nc2c1` [Example 2, N-(2-Fluoroethyl)-N-methyl-2-phenylimidazo[1,2-a]pyridin-7-amine], the “% displacement … at 10 nM” value was 50%. With `CN(C)c1ccn2cc(-c3ccccc3)nc2c1` [Example 3, N,N-Dimethyl-2-phenylimidazo[1,2-a]pyridin-7-amine] the “% displacement … at 10 nM” value was 59%. For `CNc1ccn2cc(-c3ccccc3)nc2c1` [Example 4, N-Methyl-2-phenylimidazo[1,2-a]pyridin-7-amine], the “% displacement … at 10 nM” value was 61%. For `FC1CCN(c2ccn3cc(-c4ccccc4)nc3c2)CC1` [Example 5, 7-(4-Fluoropiperidin-1-yl)-2-phenylimidazo[1,2-a]pyridine], the “% displacement … at 10 nM” value was 21%. In the case of `COc1cccc(-c2cn3ccc(N4CCCCC4)cc3n2)c1` [Example 8, 2-(3-Methoxy-phenyl)-7-piperidin-1-yl-imidazo[1,2-a]pyridine], the “% displacement … at 10 nM” value was 25%. `COc1cccc(-c2cn3ccc(N4CCCC4)cc3n2)c1` [Example 9, 2-(3-Methoxy-phenyl)-7-pyrrolidin-1-yl-imidazo[1,2-a]pyridine] was tested, and the “% displacement … at 10 nM” value was 33%. In the case of `COc1cccc(-c2cn3ccc(N4CCOCC4)cc3n2)c1` [Example 10, 2-(3-Methoxy-phenyl)-7-morpholin-4-yl-imidazo[1,2-a]pyridine], the “% displacement … at 10 nM” value was 27%. With `COc1ccc(-c2cn3ccc(N4CCCC4)cc3n2)cc1` [Example 11, 2-(4-Methoxy-phenyl)-7-pyrrolidin-1-yl-imidazo[1,2-a]pyridine] the “% displacement … at 10 nM” value was 27%. In the case of `COc1ccc(-c2cn3ccc(N4CCCCC4)cc3n2)cc1` [Example 12, 2-(4-Methoxy-phenyl)-7-piperidin-1-yl-imidazo[1,2-a]pyridine], the “% displacement … at 10 nM” value was 30%. In the case of `COc1ccc(-c2cn3ccc(N4CCOCC4)cc3n2)cc1` [Example 13, 2-(4-Methoxy-phenyl)-7-morpholin-4-yl-imidazo[1,2-a]pyridine], the “% displacement … at 10 nM” value was 40%. For `COc1ccc(-c2cn3ccc(N4CCC(F)CC4)cc3n2)cc1` [Example 14, 7-(4-Fluoro-piperidin-1-yl)-2-(4-methoxy-phenyl)-imidazo[1,2-a]pyridine], the “% displacement … at 10 nM” value was 26%. For `COc1ccc(-c2cn3ccc(N4CCN(CCF)CC4)cc3n2)cc1` [Example 15, 7-[4-(2-Fluoro-ethyl)-piperazin-1-yl]-2-(4-methoxy-phenyl)-imidazo[1,2-a]pyridine], the “% displacement … at 10 nM” value was 33%. For `CN(C)c1ccc(-c2cn3ccc(N(C)C)cc3n2)cc1` [Example 16, [2-(4-Dimethylamino-phenyl)-imidazo[1,2-a]pyridin-7-yl]-dimethyl-amine], the “% displacement … at 10 nM” value was 29%. For `CN(C)c1ccn2cc(-c3ccc(OCCF)cc3)nc2c1` [Example 17, {2-[4-(2-Fluoro-ethoxy)-phenyl]-imidazo[1,2-a]pyridin-7-yl}-dimethyl-amine], the “% displacement … at 10 nM” value was 37%. `CN(C)c1ccn2cc(-c3ccc(OCF)cc3)nc2c1` [Example 18, [2-(4-Fluoromethoxy-phenyl)-imidazo[1,2-a]pyridin-7-yl]-dimethyl-amine] was tested, and the “% displacement … at 10 nM” value was 46%. In the case of `CNc1ccn2cc(-c3ccc4c(c3)OCCO4)nc2c1` [Example 19, [2-(2,3-Dihydro-benzo[1,4]dioxin-6-yl)-imidazo[1,2-a]pyridin-7-yl]-methyl-amine], the “% displacement … at 10 nM” value was 37%. In the case of `COc1ccc(-c2cn3ccc(N(C)C)cc3n2)cc1` [Example 20, [2-(4-Methoxy-phenyl)-imidazo[1,2-a]pyridin-7-yl]-dimethyl-amine], the “% displacement … at 10 nM” value was 35%. For `CN(C)c1ccn2cc(-c3ccc4c(c3)OCCO4)nc2c1` [Example 22, [2-(2,3-Dihydro-benzo[1,4]dioxin-6-yl)-imidazo[1,2-a]pyridin-7-yl]-dimethyl-amine], the “% displacement … at 10 nM” value was 39%. With `CN(CCF)c1ccn2cc(-c3ccc4c(c3)OCCO4)nc2c1` [Example 23, [2-(2,3-Dihydro-benzo[1,4]dioxin-6-yl)-imidazo[1,2-a]pyridin-7-yl]-(2-fluoro-ethyl)-methyl-amine] the “% displacement … at 10 nM” value was 27%. With `COc1ccc(-c2cn3ccc(N4CCC4)cc3n2)cc1` [Example 24, 7-Azetidin-1-yl-2-(4-methoxy-phenyl)-imidazo[1,2-a]pyridine] the “% displacement … at 10 nM” value was 54%. In the case of `CNc1ccn2cc(-c3cccc(C)c3)nc2c1` [Example 25, N-Methyl-2-m-tolylimidazo[1,2-a]pyridin-7-amine], the “% displacement … at 10 nM” value was 54%. With `Cc1cccc(-c2cn3ccc(N(C)C)cc3n2)c1` [Example 26, N,N-Dimethyl-(2-m-tolyl-imidazo[1,2-a]pyridin-7-yl)-amine] the “% displacement … at 10 nM” value was 53%. In the case of `Cc1ccc(-c2cn3ccc(N(C)C)cc3n2)cc1` [Example 27, N,N-Dimethyl-(2-p-tolyl-imidazo[1,2-a]pyridin-7-yl)-amine], the “% displacement … at 10 nM” value was 52%. In the case of `CNc1ccn2cc(-c3ccc(C)cc3)nc2c1` [Example 28, N-Methyl-(2-p-tolyl-imidazo[1,2-a]pyridin-7-yl)-amine], the “% displacement … at 10 nM” value was 57%. For `Cc1ccc(-c2cn3ccc(N(C)CCF)cc3n2)cc1` [Example 29, N-(2-Fluoroethyl)-N-methyl-(2-p-tolyl-imidazo[1,2-a]pyridin-7-yl)-amine], the “% displacement … at 10 nM” value was 38%. For `CN(C)c1ccc(-c2cn3ccc(N(C)CCF)cc3n2)cc1` [Example 30, 2-(4-(Dimethylamino)phenyl)-N-(2-fluoroethyl)-N-methylimidazo[1,2-a]pyridin-7-amine], the “% displacement … at 10 nM” value was 23%. With `F[C@H]1CCN(c2ccn3cc(-c4ccccc4)nc3c2)C1` [Example 31, (S)-7-(3-Fluoropyrrolidin-1-yl)-2-phenyl-imidazo[1,2-a]pyridine] the “% displacement … at 10 nM” value was 31%. With `COc1cccc(-c2cn3ccc(N(C)C)cc3n2)c1` [Example 32, [2-(3-Methoxy-phenyl)-imidazo[1,2-a]pyridin-7-yl]-dimethyl-amine] the “% displacement … at 10 nM” value was 36%. `FCCC1CCN(c2ccn3cc(-c4ccc5c(c4)OCCO5)nc3c2)CC1` [Example 33, 2-(2,3-Dihydro-benzo[1,4]dioxin-6-yl)-7-[4-(2-fluoro-ethyl)-piperidin-1-yl]-imidazo[1,2-a]pyridine] was tested, and the “% displacement … at 10 nM” value was 5%. `Cc1cccc(-c2cn3ccc(N(C)CCF)cc3n2)c1` [Example 34, (2-Fluoro-ethyl)-methyl-(2-m-tolyl-imidazo[1,2-a]pyridin-7-yl)-amine] was tested, and the “% displacement … at 10 nM” value was 41%. In the case of `Cc1cccc(-c2cn3ccc(N4CCOCC4)cc3n2)c1` [Example 35, 7-Morpholin-4-yl-2-m-tolyl-imidazo[1,2-a]pyridine], the “% displacement … at 10 nM” value was 27%. `Cc1ccc(-c2cn3ccc(N4CCOCC4)cc3n2)cc1` [Example 36, 7-Morpholin-4-yl-2-p-tolyl-imidazo[1,2-a]pyridine] was tested, and the “% displacement … at 10 nM” value was 23%.

Same assay, conditions: compound 1 uM, radioligand [3H]T808 10 nM
`FCCNc1ccn2cc(-c3ccccc3)nc2c1` [Example 1, N-(2-Fluoroethyl)-2-phenylimidazo[1,2-a]pyridin-7-amine 2,2,2-trifluoroacetate] was tested, and the “% displacement of [3H]T808 (10 nM) at 1 uM” value (shortened to “% displacement … at 1 uM”) was 93%. In the case of `CN(CCF)c1ccn2cc(-c3ccccc3)nc2c1` [Example 2, N-(2-Fluoroethyl)-N-methyl-2-phenylimidazo[1,2-a]pyridin-7-amine], the “% displacement … at 1 uM” value was 90%. With `CN(C)c1ccn2cc(-c3ccccc3)nc2c1` [Example 3, N,N-Dimethyl-2-phenylimidazo[1,2-a]pyridin-7-amine] the “% displacement … at 1 uM” value was 92%. In the case of `CNc1ccn2cc(-c3ccccc3)nc2c1` [Example 4, N-Methyl-2-phenylimidazo[1,2-a]pyridin-7-amine], the “% displacement … at 1 uM” value was 93%. `FC1CCN(c2ccn3cc(-c4ccccc4)nc3c2)CC1` [Example 5, 7-(4-Fluoropiperidin-1-yl)-2-phenylimidazo[1,2-a]pyridine] was tested, and the “% displacement … at 1 uM” value was 82%.
